Data from PMC5824694, “Evaluation of agonist and antagonist radioligands for somatostatin receptor imaging of breast cancer using positron emission tomography” (EJNMMI Radiopharmacy and Chemistry, 2017).
Where two headings read alike, the source gives them in different places.

What was measured:
[1] = biodistribution and PET/CT in ZR-75-1 tumor-bearing NOD scid gamma mice; details: female, mouse, in vivo, iv, total radioactivity; for tissue uptake at 1 h: NOD scid gamma (NOD.Cg-Prkdc^sci Il2rg^tm1Wjl/SzJ); for tissue to tissue ratio at 1 h: NOD scid gamma (NOD.Cg-Prkdc scid Il2rg tm1Wjl/SzJ)
Text: (§1) All animal studies were done in compliance with the Canadian Council on Animal Care guidelines and were approved by the Animal Care Committee of University of British Columbia (Vancouver, Canada). Immunodeficient female NOD.Cg-Prkdc ^sci Il2rg ^tm1Wjl/SzJ mice (NOD scid gamma) were obtained from an in-house breeding colony at the Animal Resource Centre of the BC Cancer Agency Research Centre and also from Jackson Laboratory. To sustain the growth of the ER-positive ZR-75-1 cell model, animals were administered a 1.7 mg, 60-day slow-release estrogen pellet from Innovative Research of America (Sarasota, FL) subcutaneously in the dorsal space of the neck. 3–5 days post pellet-implant, 10 million ZR-75-1 cells were re-suspended in a mixture of 1:1 PBS and Matrigel (Corning Inc., Corning, NY) and inoculated subcutaneously on the right shoulder. Tumors were grown for 5–6 weeks, until they reached a size of 7–11 mm in diameter.
(§2) Mice were sedated using 2 mL/min of O2 with 2% isoflurane and injected intravenously (i.v.) with 1–2 MBq of ^68Ga-labeled peptide. Mice were allowed to roam freely for 60 min prior to euthanasia by 2 mL/min of O2 with 4% isoflurane followed by CO2 asphyxiation. Blood was promptly collected by cardiac puncture and weighted. Internal organs were harvested, rinsed in PBS, patted dry and weighed. Organ uptake was measured either in a WIZARD 2480 gamma counter (Perkin Elmer) or Cobra II auto-gamma counter (Packard), both calibrated with standards of known ^68Ga activity. Uptake was normalized to the injected dose and to the respective weight of the organ, and expressed as percent injected dose per gram of tissue (%ID/g).
(§3) Tumor-bearing mice were injected i.v. with 8–9 MBq of ^68Ga-labeled peptide. Static PET images were acquired 55 min post-injection for 10 min using an Inveon microPET/CT scanner (Siemens, Erlangen, Germany) as described previously (Lin et al. [2015]). A baseline CT scan was used for localization and attenuation correction. Mice were promptly euthanized after imaging, and biodistribution studies were undertaken as described above.

[2] = system: ZR-75-1 tumors; experiment: as above; details: mouse, in vivo, iv; for Kidneys uptake / Tumor uptake: female, NOD scid gamma (NOD.Cg-Prkdc^sci Il2rg^tm1Wjl/SzJ)
Text: as §1, §2, §3

[3] = molecular target: T1, sstr2 receptors on ZR-75-1 cells (Homo sapiens, UniProt P30874); experiment: saturation binding assay on ZR-75-1 cells; details: ZR-75-1 cells in vitro; 1 h at 25 °C; one-site binding model
T1 construct: we used a human breast cancer cell model with endogenous sstr2 expression (ZR-75-1 cells); host or cells: ZR-75-1 cells
T1 sequence (P30874 whole entry): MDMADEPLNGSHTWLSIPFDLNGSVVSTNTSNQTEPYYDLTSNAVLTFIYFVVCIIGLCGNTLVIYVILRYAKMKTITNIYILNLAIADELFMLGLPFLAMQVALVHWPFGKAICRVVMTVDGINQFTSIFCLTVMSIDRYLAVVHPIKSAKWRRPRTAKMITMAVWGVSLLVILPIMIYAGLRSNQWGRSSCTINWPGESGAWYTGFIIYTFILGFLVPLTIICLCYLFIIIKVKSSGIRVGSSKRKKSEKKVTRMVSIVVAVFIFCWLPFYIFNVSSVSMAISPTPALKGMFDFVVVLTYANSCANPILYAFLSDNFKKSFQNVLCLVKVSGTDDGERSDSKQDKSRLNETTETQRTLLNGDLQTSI

[4] = system: sstr2; design: method as in Reubi et al. [2000]; details: ref Reubi et al. [2000]; cited from earlier work
[5] = system: sstr2; design: method as in Fani et al. [2012b]; details: autoradiography approach; ref Fani et al. [2012b]; cited from earlier work
[6] = system: NET; details: human, in vivo; cited from earlier work

tissue uptake at 1 h ([1]; Blood uptake) | tissue uptake at 1 h ([1]; Bone uptake) | tissue uptake at 1 h ([1]; Fat uptake) | tissue uptake at 1 h ([1]; Heart uptake) | tissue uptake at 1 h ([1]; Intestines uptake) | tissue uptake at 1 h ([1]; Kidneys uptake) | tissue uptake at 1 h ([1]; Liver uptake) | tissue uptake at 1 h ([1]; Lungs uptake) | tissue uptake at 1 h ([1]; Ovaries uptake) | tissue uptake at 1 h ([1]; Pancreas uptake) | tissue uptake at 1 h ([1]; Spleen uptake) | tissue uptake at 1 h ([1]; Stomach uptake) | tissue uptake at 1 h ([1]; Uterus uptake) | Kidneys uptake ([2]; 1 h) | Compound | further results
0.45 %ID/g | 0.2 %ID/g | 0.18 %ID/g | 0.3 %ID/g | 2.39 %ID/g | 9.3 ± 1.7 %ID/g | 0.71 %ID/g | 22.9 %ID/g | 0.51 %ID/g | 11 %ID/g | 0.46 %ID/g | 2.75 %ID/g | 0.54 %ID/g | 9.27 %ID/g | C[C@@H](O)[C@@H]1NC(=O)[C@H](CCCCN)NC(=O)[C@@H](Cc2c[nH]c3ccccc23)NC(=O)[C@H](Cc2ccc(O)cc2)NC(=O)[C@@H](NC(=O)[C@@H](Cc2ccccc2)NC(=O)CN2CCN(CC(=O)O)CCN(CC(=O)O)CCN(CC(=O)O)CC2)CSSC[C@@H](C(=O)N[C@H](CO)[C@@H](C)O)NC1=O [^68Ga-DOTATOC, ^68Ga-DOTA-Tyr^3-octreotide, metal not drawn] | tissue uptake at 1 h ([1]; Adrenals uptake): 9.52 %ID/g; tissue uptake at 1 h ([1]; Brain uptake): 0.03 %ID/g; tissue uptake at 1 h ([1]; Muscle uptake): 0.11 %ID/g; tissue uptake at 1 h ([1]; Tumor uptake): 18.4 ± 2.9 %ID/g; Tumor uptake ([2]; 1 h): 18.44 %ID/g
– | – | – | – | – | – | – | – | – | – | – | – | – | – | C[C@@H](O)[C@@H]1NC(=O)[C@H](CCCCN)NC(=O)[C@@H](Cc2ccc(NC(N)=O)cc2)NC(=O)[C@H](Cc2ccc(NC(=O)[C@@H]3CC(=O)NC(=O)N3)cc2)NC(=O)[C@H](NC(=O)[C@H](Cc2ccc(Cl)cc2)NC(=O)CCC(C(=O)O)N2CCN(CC(=O)O)CCN(CC(=O)O)CC2)CSSC[C@@H](C(=O)N[C@H](Cc2ccc(O)cc2)C(N)=O)NC1=O (stereo partly drawn) [^67/natGa-NODAGA-JR11, metal not drawn] | Bmax (number of binding sites) [3]: 4.39 ± 0.32 × 10^4 sites/cell
– | – | – | – | – | – | – | – | – | – | – | – | – | – | C[C@@H](O)[C@@H]1NC(=O)[C@H](CCCCN)NC(=O)[C@@H](Cc2ccc(NC(N)=O)cc2)NC(=O)[C@H](Cc2ccc(NC(=O)[C@@H]3CC(=O)NC(=O)N3)cc2)NC(=O)[C@H](NC(=O)[C@H](Cc2ccc(Cl)cc2)NC(=O)CCC(C(=O)O)N2CCN(CC(=O)O)CCN(CC(=O)O)CC2)CSSC[C@@H](C(=O)N[C@H](Cc2ccc(O)cc2)C(N)=O)NC1=O (stereo partly drawn) [^natGa-NODAGA-JR11, metal not drawn] | IC50 [5]: 1.2 ± 0.2 nM
0.8 %ID/g | 0.26 %ID/g | 0.23 %ID/g | 0.46 %ID/g | 0.9 %ID/g | 14.1 ± 1.7 %ID/g | 0.99 %ID/g | 4.72 %ID/g | 0.67 %ID/g | 9.29 %ID/g | 0.39 %ID/g | 1.36 %ID/g | 0.86 %ID/g | 14.12 %ID/g | C[C@@H](O)[C@@H]1NC(=O)[C@H](CCCCN)NC(=O)[C@@H](Cc2ccc(NC(N)=O)cc2)NC(=O)[C@H](Cc2ccc(NC(=O)[C@@H]3CC(=O)NC(=O)N3)cc2)NC(=O)[C@H](NC(=O)[C@H](Cc2ccc(Cl)cc2)NC(=O)CCC(C(=O)O)N2CCN(CC(=O)O)CCN(CC(=O)O)CC2)CSSC[C@@H](C(=O)N[C@H](Cc2ccc(O)cc2)C(N)=O)NC1=O (stereo partly drawn) [^68Ga-NODAGA-JR11, metal not drawn] | tissue to tissue ratio at 1 h ([1]; Tumor to Background Ratio: Blood (tumor-to-blood)): 15.6; tissue to tissue ratio at 1 h ([1]; Tumor to Background Ratio: Kidneys): 0.87; tissue to tissue ratio at 1 h ([1]; Tumor to Background Ratio: Muscle (tumor-to-muscle)): 45.1; tissue uptake at 1 h ([1]; Adrenals uptake): 2 %ID/g; tissue uptake at 1 h ([1]; Brain uptake): 0.05 %ID/g; tissue uptake at 1 h ([1]; Muscle uptake): 0.28 %ID/g; tissue uptake at 1 h ([1]; Tumor uptake): 12.2 ± 0.8 %ID/g; Tumor uptake ([2]; 1 h): 12.21 %ID/g; Tumor to Background Ratio: Blood (tumor-to-blood) [2]: 15.6 ± 2.2; Tumor to Background Ratio: Muscle (tumor-to-muscle) [2]: 45.2 ± 11.6; higher SUVmax uptake compared to ^68Ga-DOTATOC [6]: ~ 15%
0.35 %ID/g | 0.25 %ID/g | 0.28 %ID/g | 0.67 %ID/g | 7.35 %ID/g | 8.5 ± 1.7 %ID/g | 1.95 %ID/g | 28.7 %ID/g | 0.89 %ID/g | 51.6 %ID/g | 0.84 %ID/g | 8.29 %ID/g | 0.84 %ID/g | 8.45 %ID/g | C[C@@H](O)[C@H](NC(=O)[C@@H]1CSSC[C@H](NC(=O)[C@@H](Cc2ccccc2)NC(=O)CN2CCN(CC(=O)O)CCN(CC(=O)O)CCN(CC(=O)O)CC2)C(=O)N[C@@H](Cc2ccc(O)cc2)C(=O)N[C@H](Cc2c[nH]c3ccccc23)C(=O)N[C@@H](CCCCN)C(=O)N[C@@H]([C@@H](C)O)C(=O)N1)C(=O)O [^68Ga-DOTATATE, ^68Ga-DOTA-Tyr^3-octreotate, metal not drawn] | Brain uptake ([2]; 1 h): 0.03 %ID/g
